Experimental data taken from EP1137645B1, “ALPHA-METHYLBENZYL-CONTAINING THIOUREA INHIBITORS OF HERPES VIRUSES CONTAINING A […] GROUP” (Wyeth, priority 1998, dated 2000).
≈ marks a conversion by molar mass, not a printed value. Like-named read-outs stand apart in the source and are kept apart here.

Experiments:
[1] = tested on: HCMV recombinant mutant virus whose genome contains the prokaryotic beta-glucuronidase gene; assay: microbe, parasite or virus in culture; type: cell-based, human cytomegalovirus; settings: Human betaherpesvirus 5, Fibroblast, read-out: IC50 ug/ml HCMV, HCMV, human foreskin fibroblasts
Summary of the method: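 Antiviral IC50 estimated from reduced reporter activity across compound amounts: lysates prepared 96 h after infection were tested with p-nitrophenyl- or methylumbelliferyl-glucuronide. Cells were human foreskin fibroblasts, infected alongside inhibitor with HCMV (e.g. RV145) expressing viral promoter-driven beta-glucuronidase.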

[2] = tested on: VZV strain Ellen; assay: VZV antiviral (ELISA) assay; type: cell-based; settings: Human alphaherpesvirus 3, HFF; for inhibition at 10 µg/mL: read-out: % inhibition 10 ug/ml VZV
Summary of the method: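 HFF cells infected with VZV Ellen at multiplicity below 0.1 overnight, then mixed infected/uninfected cells seeded with compound in DMEM/2% FBS and incubated three days at 37°C, 5% CO2.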

[3] = tested on: HSV- I; assay: HSV antiviral (ELISA) assay; type: cell-based; settings: read-out: IC50 (ug/ml) HSV
Procedure: Vero cells (ATCC #CCL-81) are plated on 96-well tissue culture plates at 3.5x10^4 cells per 100µl tissue culture DMEM (Dulbecco's modified Eagle media) supplemented with 2% fetal bovine serum (FBS) in each well. After overnight incubation @ 37°C (in 5% CO2) and 30 minutes prior to infection with HSV- I (multiplicity of infection equal to 0.006), cells are either untreated, or treated with test compound (multiple concentrations) or reference standard drug control. After approximately 24 hours post-infection incubation @ 37°C (in 5% CO2), cells are fixed for ELISA assay. The primary antibody is murine anti-HSV glycoprotein D monoclonal primary antibody and the secondary antibody is goat anti-mouse IgG linked to β-galactosidase. Thus the extent of viral replication is determined by assessing β-galactosidase activity by quantifying the generation of the 4-methyl umbelliferone fluorescent cleavage product after addition of the methyl umbelliferyl-β-D-galactoside (Sigma #M1633) substrate on a microfluorimeter (365nm for excitation and 450nm for emission). Antiviral activity (IC50) of the test compound is determined by comparing the flourescence obtained in absence of compound to that obtained in the presence of compound.

[4] = read-out: IC50 (ug/ml) VZV, VZV strain Ellen, HFF cells, ELISA

SMILES | IC50 [1] [µg/mL] | inhibition at 10 µg/mL [2] [%] | IC50 ([2]; read-out: IC50 (ug/ml) VZV) [µg/mL] | IC50 ([3]; HSV- I, Vero cells, ELISA) [µg/mL] | IC50 [2, 4] [µg/mL] | IC50 ([3]; Vero) [µg/mL]
COc1cc(OC)c(NC(=S)Nc2ccc(NC(=O)c3ccc4ccccc4c3)cc2)cc1Cl [Example 156, Naphthalene-2-carboxylic acid {4-[3-(5-chloro-2,4-dimethoxy-phenyl)-thioureido]-phenyl}-amide] | 10 (≈ 20.3 µM) | 17 | > 10 | 2 (≈ 4.07 µM) |  | 
COc1cc(OC)c(NC(=S)Nc2ccc(NC(=O)c3cccc4ccccc34)cc2)cc1Cl [Example 157, Naphthalene-1-carboxylic acid {4-[3-(5-chloro-2,4-dimethoxy-phenyl)-thioureido]-phenyl}-amide] | 8 (≈ 16.3 µM) | 32 | > 10 | 0.9 (≈ 1.83 µM) |  | 
CCOC(=O)Nc1cccc(C(=O)Nc2ccc(NC(=S)Nc3cc(Cl)c(OC)cc3OC)cc2)c1 [Example 180, (3-{4-[3-(5-Chloro-2,4-dimethoxy-phenyl)-thioureido]-phenylcarbamoyl}-phenyl)-carbamic acid ethyl ester] | 1.5 (≈ 2.84 µM) | 36 |  |  | > 10 | 1.3 (≈ 2.46 µM)
COc1cc(OC)c(NC(=S)Nc2ccc(NC(=O)c3ccccc3N)cc2)cc1Cl [Example 181, 2-Amino-N-{4-[3-(5-chloro-2,4-dimethoxy-phenyl)-thioureido]-phenyl}-benzamide] | > 10 | 60 | > 10 | 1.5 (≈ 3.28 µM) |  | 
COc1cc(OC)c(NC(=S)Nc2ccc(NC(=O)c3ccccc3-c3ccccc3)cc2)cc1Cl [Example 182, Biphenyl-2-carboxylic acid {4-[3-(5-chloro-2,4-dimethoxy-phenyl)-thioureido]-phenyl}-amide] | 10 (≈ 19.3 µM) | 32 |  |  | > 10 | 10 (≈ 19.3 µM)
COc1cc(OC)c(NC(=S)Nc2ccc(NC(=O)c3ccccc3C(=O)O)cc2)cc1Cl [Example 184, N-{4-[3-(5-Chloro-2,4-dimethoxy-phenyl)-thioureido]-phenyl}-phthalamic acid] | > 50 |  |  |  | > 10 | > 50
COc1cc(OC)c(NC(=S)Nc2ccc(NC(=O)c3ccccc3CO)cc2)cc1Cl [Example 185, N-{4-[3-(5-Chloro-2,4-dimethoxy-phenyl)-thioureido]-phenyl}-2-hydroxy-methyl-benzamide] | 10 (≈ 21.2 µM) | 32 | > 10 | 3 (≈ 6.36 µM) |  | 
COc1cc(OC)c(NC(=S)Nc2ccc(NC(=O)c3cccc(F)c3F)cc2)cc1Cl [Example 186, N-{4-[3-(5-Chloro-2,4-dimethoxy-phenyl)-thioureido]-phenyl}-2,3-difluoro-benzamide] | > 10 | 52 | > 10 | 0.2 (≈ 0.418 µM) |  | 
COc1cc(OC)c(NC(=S)Nc2ccc(NC(=O)c3cc(F)ccc3F)cc2)cc1Cl [Example 187, N-{4-[3-(5-Chloro-2,4-dimethoxy-phenyl)-thioureido]-phenyl}-2,5-difluoro-benzamide] | > 10 | 53 | > 10 | 0.2 (≈ 0.418 µM) |  | 
COc1cc(OC)c(NC(=S)Nc2ccc(NC(=O)c3ccc(F)cc3F)cc2)cc1Cl [Example 188, N-{4-[3-(5-Chloro-2,4-dimethoxy-phenyl)-thioureido]-phenyl}-2,4-difluoro-benzamide] | > 10 | 22 | > 10 | 1.2 (≈ 2.51 µM) |  | 
COc1cc(OC)c(NC(=S)Nc2ccc(NC(=O)c3ccccc3NC(C)=O)cc2)cc1Cl [Example 189, 2-Acetylamino-N-{4-[3-(5-chloro-2,4-dimethoxy-phenyl)-thioureido]-phenyl}-benzamide] | > 10 | 59 | > 10 | 2.5 (≈ 5.01 µM) |  | 
COc1cc(OC)c(NC(=S)Nc2ccc(NC(=O)c3ccccc3NS(C)(=O)=O)cc2)cc1Cl [Example 191, N-{4-[3-(5-Chloro-2,4-dimethoxy-phenyl)-thioureido]-phenyl}-2-methane-sulfonylamino-benzamide] | > 10 | 22 |  |  | > 10 | 8 (≈ 15 µM)
COc1cc(OC)c(NC(=S)Nc2ccc(NC(=O)c3ccc(F)c(F)c3F)cc2)cc1Cl [Example 192, N-{4-[3-(5-Chloro-2,4-dimethoxy-phenyl)-thioureido]-phenyl}-2,3,4-trifluoro-benzamide] | > 10 | 14 | > 10 | 0.5 (≈ 1.01 µM) |  | 
COc1cc(OC)c(NC(=S)Nc2ccc(NC(=O)c3c(F)c(F)c(F)c(F)c3F)cc2)cc1Cl [Example 193, N-{4-[3-(5-Chloro-2,4-dimethoxy-phenyl)-thioureido]-phenyl}-2,3,4,5,6-pentafluoro-benzamide] | > 10 | 106 | 3.8 (≈ 7.14 µM) | 1.5 (≈ 2.82 µM) |  | 
COc1cc(OC)c(NC(=S)Nc2ccc(NC(=O)c3ccccc3SC)cc2)cc1Cl [Example 194, N-{4-[3-(5-Chloro-2,4-dimethoxy-phenyl)-thioureido]-phenyl}-2-methyl-sulfanyl-benzamide] | > 10 | 45 | > 10 | 1.5 (≈ 3.07 µM) |  | 
COC(=O)c1cccc(C(=O)Nc2ccc(NC(=S)Nc3cc(Cl)c(OC)cc3OC)cc2)c1 [Example 208, N-{4-[3-(5-Chloro-2,4-dimethoxy-phenyl)-thioureido]-phenyl}-isophthalamic acid methyl ester] | > 10 | 25 | > 10 | 10 (≈ 20 µM) |  | 
COc1cc(OC)c(NC(=S)Nc2ccc(NC(=O)c3cccc(C(=O)O)c3)cc2)cc1Cl [Example 209, N-{4-[3-(5-Chloro-2,4-dimethoxy-phenyl)-thioureido]-phenyl}-isophthalamic acid] | > 50 | 22 | > 10 | > 50 |  | 
COc1cc(OC)c(NC(=S)Nc2ccc(NC(=O)c3cccc(OCc4ccccc4)c3)cc2)cc1Cl [Example 210, 3-Benzyloxy-N-{4-[3-(5-chloro-2,4-dimethoxy-phenyl)-thioureido]-phenyl}-benzamide] | > 10 | 14 | > 10 | 5 (≈ 9.12 µM) |  | 
CCCCOc1cccc(C(=O)Nc2ccc(NC(=S)Nc3cc(Cl)c(OC)cc3OC)cc2)c1 [Example 219, 3-Butoxy-N-{4-[3-(5-chloro-2,4-dimethoxy-phenyl)-thioureido]-phenyl}-benzamide] | > 10 | 30 | > 10 | 2.5 (≈ 4.86 µM) |  | 
COc1cc(OC)c(NC(=S)Nc2ccc(NC(=O)c3ccccc3[S+](C)[O-])cc2)cc1Cl (stereo not drawn) [Example 220, N-{4-[3-(5-Chloro-2,4-dimethoxy-phenyl)-thioureido]-phenyl}-2-methane-sulfinyl-benzamide] | > 10 | 35 |  |  | > 10 | > 10
CCOC(=O)COc1cccc(C(=O)Nc2ccc(NC(=S)Nc3cc(Cl)c(OC)cc3OC)cc2)c1 [Example 221, (3-{4-[3-(5-Chloro-2,4-dimethoxy-phenyl)-thioureido]-phenylcarbamoyl}-phenoxy)-acetic acid ethyl ester] | > 10 | 17 | > 10 | > 10 |  | 
COc1cc(OC)c(NC(=S)Nc2ccc(NC(=O)c3cccc(OCC(=O)O)c3)cc2)cc1Cl [Example 222, (3-{4-[3-(5-Chloro-2,4-dimethoxy-phenyl)-thioureido]-phenylcarbamoyl}-phenoxy)-acetic acid] | > 50 | 17 | > 10 | > 50 |  | 
Cc1ccc(NC(=S)Nc2ccc(NC(=O)c3ccccc3F)cc2)cc1Cl [Example 231, N-{4-[3-(3-Chloro-4-methyl-phenyl)-thioureido]-phenyl}-2-fluoro-benzamide] | > 10 | 11 | > 10 | 0.5 (≈ 1.21 µM) |  | 
COc1cccc(C(=O)Nc2ccc(NC(=S)Nc3ccc(C)c(Cl)c3)cc2)c1 [Example 232, N-{4-[3-(3-Chloro-4-methyl-phenyl)-thioureido]-phenyl}-3-methoxy-benzamide] | > 10 | 21 | > 10 | 1 (≈ 2.35 µM) |  | 
Cc1ccc(NC(=S)Nc2ccc(NC(=O)c3ccccc3C)cc2)cc1Cl [Example 234, N-{4-[3-(3-Chloro-4-methyl-phenyl)-thioureido]-phenyl}-2-methyl-benzamide] | 1 (≈ 2.44 µM) | 68 | > 10 | 0.2 (≈ 0.488 µM) |  | 
